A word on the melting point: it is the temperature of the solid-liquid transition.

A value given as a limit tells only on which side of the number the result lay.

For `COC(=O)[C@H]1Cc2c(sc3ccccc23)[C@@H](c2cccc(O)c2)N1`, the melting point was in the range of 283 to 285 °C.
With `O=C(O)Cc1c(C(=O)O)c2cc(Oc3cccc(Cl)c3)ccc2n1-c1ccccc1`, the melting point was in the range of 192 to 194 °C.
In the case of `COc1ccccc1Oc1c(NS(=O)(=O)c2ccc3c(c2)OCO3)nc(-c2ccnc(-c3nnn[nH]3)c2)nc1OCCO` it was 227 to 229 °C; in that of `Cc1ccc(NC(=O)N(C)Cc2cccc3c2CN(C2CCC(=O)NC2=O)C3=O)cc1Cl` (configuration not stated), 248 to 250 °C.
Compound `Cc1c(OCC(O)CN2CCOCC2)noc1-c1ccccc1` (configuration not stated) registered a melting point of 94 to 95 °C.
For the compound `CCN1C(=O)CCCc2c1ccc(Nc1ncc(Cl)c(Nc3ccccc3-n3cccn3)n1)c2OC`, the melting point lay within 183 to 185 °C.
Compound `CCOC(=O)c1ccc2n1Cc1ccccc1N(C(=O)c1ccc(NC(=O)c3ccc(Cl)cc3Cl)c(C)c1)C2` displayed a melting point of 174 to 184 °C.
Compound `C=CC(=O)NC1Cc2ccc(-c3ccc(=O)[nH]n3)cc2C1` (configuration not stated) registered a melting point of 235 to 237 °C.
On to `COc1cc2c(cc1C(F)(F)F)N(C(=O)Nc1cc(F)cc(-c3cnccc3C)c1)CC2`, for which the melting point was 191 to 195 °C.
`CCOC(=O)c1cn(C2CCCCC2)c2cc(C#Cc3cc(Cc4cnc(N)nc4N)cc(OC)c3OC)ccc2c1=O` returned a melting point of 228 to 230 °C.
`CCOC(=O)C1Cc2cc3c(-c4ccccc4F)noc3c(C)c2O1` (configuration not stated) came in with a melting point of 124 to 125 °C.
`CC(C)NCCc1ccc(O)cc1` displayed a melting point of 102 to 104 °C.
The compound `COc1ccc2c(c1)Sc1ccccc1C(=O)N2` showed a melting point of 232 to 234 °C.
The compound `ClCCCC1(c2ccccc2)OCCO1` yielded a melting point of 54 to 55.5 °C.
`CCOC(=O)CCCC(=O)c1ccc(O)c(CCC(=O)OCC)c1`: the melting point lay within 68 to 69 °C.
As for `CC(C)(C)OC(=O)Cn1ccc2cc(NC(=O)CC34CC5CC(CC(C5)C3)C4)ccc21`, the melting point was found to be 199 °C.
In turn, `CCCCCCCCCc1cnc(-c2ccc(C(=O)OC)cc2)nc1` yielded a melting point of 61.7 °C.
In the case of `CS(=O)(=O)n1c(=NC(F)(F)F)oc2ccccc21` it was 142 to 146 °C.
`CCCCCCCCCCCCCCCCC[C@@H](C[C@@H]1OC(=O)[C@H]1CCCCCC)OC(=O)[C@H](CC(C)C)NC=O`: the melting point fell in the range of 64 to 65 °C.
`O=[N+]([O-])c1cccnc1Nc1cc(F)ccc1F` gave a melting point of 150 to 152 °C.
For the compound `O=C(CNC(=O)OCc1ccccc1)NCCCCCCO`, the melting point was 104 to 105 °C.
`CCOc1ccc2ccc(F)c(F)c2c1F` came in with a melting point of 96.5 to 98.5 °C.
Then `COc1ccc2c(C)c(CCO)c(=O)oc2c1`, with 141 to 142 °C; and `NC(=O)ON(Cc1ccccc1)Cc1ccccc1`, with 127 to 129 °C; and `CC(C)CCCCCCCCCCCC(=O)Nc1ccc(O)c(O)c1`, with 85 to 86 °C.
`COC(=O)c1nc2cc(OC)c(OC)cc2n(C)c1=O` had a melting point of 222 °C.
Then `Cc1ccccc1Oc1cccc2c1OC(=O)C2N1C(=O)c2ccccc2C1=O` (configuration not stated), with 168 to 170 °C; and `COc1cc(C)c2ccc(N3C(=O)C4=C(SCCS4)C3OC(=O)N3CCN(C)CC3)nc2n1` (configuration not stated), with 232 to 234 °C; and `Cc1ccc(-c2ccc([Si](C)(C)C)cc2)nc1`, with 66.1 °C.
`COC(=O)c1cc(S(=O)(=O)NC(=O)Nc2nc(C)cc(C)n2)c[nH]1`: the melting point was in the range of 202 to 204 °C.
Then `Clc1ccc(-c2nc(-n3cccn3)oc2CCC2=NCCO2)cc1`, with 79 to 80 °C; and `CCCCCCSC1c2cccc(O)c2C(=O)c2c(O)cccc21`, with 49 to 50 °C; and `CCN(c1ccc(Cl)cc1C(=O)O)S(=O)(=O)c1ccc(C)cc1`, with 163 to 165 °C.
Consider `CCCCN(CCCC)p1oc2c(C(C)(C)C)cc(C(C)(C)C)cc2c2cc(C(C)(C)C)cc(C(C)(C)C)c2o1`, for which the melting point was determined as 140 °C.
Take `NC(=O)N=C1SCCN1Cc1ccccc1`: the melting point is 143 to 145 °C.
As to `CC(=Cc1ccc(S)cc1)c1ccc2c(c1)C(C)(C)CCC2(C)C`, the melting point was in the range of 97 to 98 °C.
The compound `Cc1cccc(C(=O)Nc2ccc(-c3ccc(-c4ccccc4Cl)n3Cc3cccc(N)n3)cc2)c1` had a melting point of 108 to 118 °C.
In turn, `CCCCc1oc2ccccc2c1-c1ncc(-c2ccc3cc(OCc4ccc(C(=O)OC)cc4C(=O)OC)ccc3c2)o1` gave a melting point of 195 to 197 °C.
`ClC(Cl)(Cl)c1nsc(N2CCCC2)n1` returned a melting point of 106 to 107 °C.
Compound `Cc1noc(NS(=O)(=O)c2ccccc2-c2ccc(-c3ncco3)cc2Cn2nccn2)c1C` displayed a melting point of 162 to 168 °C.
Regarding `Cc1cnc(N(C)C)nc1-c1ccncc1`, the melting point fell in the range of 114 to 116 °C.
With `CC1(CN(c2ccc(Cl)cc2)S(C)(=O)=O)SCCS1`, the melting point fell in the range of 114 to 117 °C.
In the case of `Cc1ccc(N2C(=O)c3nccnc3C2OC(=O)N2CCNCC2)nc1` (configuration not stated) it was 182 °C; in that of `COc1ccc(C2(CCN3CCC(C(=O)c4nc5ccccc5n4Cc4ccc(F)cc4)CC3)CCN(C(=O)c3ccccc3)C2)cc1OC` (configuration not stated), 42 to 44 °C; in that of `Cc1c(-c2ccc(Cl)cc2Cl)nn(C)c1S(C)(=O)=O`, 110 to 112 °C.
Take `COC(=O)c1ccc(-c2n[nH]c3c2CCc2nc(C(C)C)c(C(C)C)nc2-3)cc1`: the melting point lay in the range of 204 to 206 °C.
As to `CCCC(Cc1ccc(OCc2ccccc2)cc1)C(=O)O` (configuration not stated), the melting point lay in the range of 83 to 85 °C.
Consider `O=C(NN=C(Cc1ccccc1)c1ccccn1)OCc1ccccc1`, for which the melting point came to 155 °C.
`Cc1c(C(=O)O)cccc1-n1c(C)ccc1C` returned a melting point of 142 to 143 °C.
Take `CCc1ccc(C2C(=O)Oc3c2cc(C(C)(C)C)cc3C(C)(C)C)cc1` (configuration not stated): the melting point was in the range of 127 to 132 °C.
As to `Cc1ccc([C@@H](O)[C@H](Br)C(=O)N2C(=O)O[C@H](c3ccccc3)[C@@H]2C)cc1`, the melting point is 139 °C.
Regarding `COc1ccc(C2(C#Cc3csc(C(=O)O)c3)CCC(=O)CC2)cc1OC1CCCC1`, the melting point was in the range of 80 to 82 °C.
In the case of `CCOC(=O)C(=CNc1nonc1C)C(=O)c1cc(F)c(Cl)nc1Cl` it was 139 to 142 °C; in that of `Nc1cccnc1CCCCNc1ncc(Cc2cccnc2)c(=O)[nH]1`, 130 to 132 °C.
In turn, `CCCCc1nc2c(N)nc3ccc(OCc4ccccc4)cc3c2n1CCCCNC(=O)c1ccccc1` came in with a melting point of 173 to 174 °C.
For `Cc1cccc(C(CNc2ncnc3c2ncn3C2OC(CO)C(O)C2O)c2ccccc2)c1` (configuration not stated), the melting point lay in the range of 92 to 105 °C.
As for `CS(=O)(=O)c1ccc(-c2cnn(CC(F)(F)F)c(=O)c2N2CCCCC2)cc1`, the melting point was 160 to 161 °C.
In the case of `Cn1nc(OC(c2ccccc2)c2ccccc2)c(=O)nc1Cl` it was 182 to 184 °C; in that of `CC(C)C(=O)CCC(C)C1CCC2C3C=CC4=CC(=O)C5OC5C4(C)C3CCC12C` (configuration not stated), 150 to 152 °C; in that of `c1ccc(C2SCCCS2)cc1`, 72 to 73 °C.
In turn, `Nc1cc(=O)n(Cc2ccc3c(c2)OCO3)[nH]1` showed a melting point of 218 °C.
`COc1ccc(Nc2nc(-c3ccncc3)nc3ccccc23)cc1Cl` returned a melting point of more than 220 °C.
As for `CC1CCCC(C)N1Cc1nc(-c2ncn3c2C2CCN2C(=O)c2c(Cl)cccc2-3)no1` (configuration not stated), the melting point was 233 to 236 °C.
The compound `Cc1c(NC(=O)c2ccnc(NCc3ccc(=O)[nH]c3)c2)cccc1C(F)(F)F` showed a melting point of 196 to 201 °C.
In the case of `CC(C)NC(=O)N1N=C(c2ccc([N+](=O)[O-])cc2)c2cc(Cl)ccc2CC1C` (configuration not stated) it was 172 to 174 °C; in that of `CC(C)c1ccc(C#N)nc1`, 47 to 49 °C; in that of `O=C(O)CCCc1cc2cc(Cl)ccc2n1S(=O)(=O)c1cccc2cccnc12`, 217 to 219 °C.
In the case of `O=C(CCl)Nc1c(I)cc(I)c(C(=O)O)c1I`, the melting point was in the range of 253 to 255 °C.
`COc1c(N2CC(C)C(NC3CC3)C(C)C2)c(F)cc2c(=O)c(C(=O)O)cn(C3CC3)c12` (configuration not stated) showed a melting point of 240 to 242 °C.
Then `Cn1c(C(F)(F)F)cc(=O)n(Cc2cc(Cl)cc(Cl)c2Cl)c1=O`, with 128 to 130 °C; and `NS(=O)(=O)C(F)(F)C(F)(F)C(F)(F)C(F)(F)C(F)(F)C(F)(F)F`, with 165 to 168 °C; and `CC(C)NC(=O)NCCCOc1cc(CN2CCCCC2)ccn1`, with 58 to 60 °C.
Consider `CN1CCN(c2nc3sc4c(NCCCN5CCOCC5)ncnc4c3c3c2COC(C)(C)C3)CC1`, for which the melting point was 90.6 to 92.4 °C.
In the case of `CCOC(=O)C1=C(C)NC(c2scnc2C)=NC1c1ccc(F)cc1Cl` (configuration not stated) it was 134 to 139 °C.
Compound `CC(=O)c1nc(C)cn1-c1cc(C)c2[nH]c(=O)ccc2c1` returned a melting point of 312 to 314 °C.
`Cc1cc(OCc2coc(C=Cc3ccc(SC(F)(F)F)cc3)n2)ccc1COCCn1ccnn1`: the melting point is 102 °C.
With `COc1ccc(S(=O)(=O)Cl)c2c3ccccc3n(C=O)c12`, the melting point was in the range of 201 to 203 °C.
In turn, `CC(O)C(CCCc1ccccc1)n1ncc2c(=O)[nH]c(Cc3ccc(Cl)cc3)nc21` (configuration not stated) displayed a melting point of 101 °C.
As to `CN(C)C(=O)C(C)(C)c1ccccc1`, the melting point fell in the range of 57 to 59 °C.
The compound `C=CCN(CC=C)c1nc(N(CC=C)CC=C)nc(N2CCN(C(=O)n3ccnc3)CC2)n1` showed a melting point of 94 to 95 °C.
Then `Cc1ccc(CC2CCN(C(=O)C(=O)Nc3ccc4[nH]c(=O)oc4c3)CC2)cc1`, with 133 to 135 °C.
In turn, `Cc1c(Br)c(=O)n(C2CCCC2)c2nc(Nc3ccccn3)ncc12` came in with a melting point of 267 to 268 °C.
`O=CNNC(=O)N1Cc2ccccc2Oc2ccc(Cl)cc21` came in with a melting point of 177 to 181 °C.
`N#CN=C(NCCO)NCc1ccc(-c2csc(N=C(N)N)n2)o1` came in with a melting point of 208 to 209 °C.
`COC(=O)c1ccc(C=CC=O)cc1` gave a melting point of 99 to 101 °C.
In the case of `CNC(NCCSCc1[nH]cnc1C)=C(C#N)C#N` it was 133 to 135 °C; in that of `N#CCNC(=O)C1(NC(=O)c2ccc(N3CCNCC3)cc2)CCCCC1`, 206 to 210 °C.

For the origin of these results see a melting point compilation (Tetko et al.; mined from patent text by program, amines drawn as free bases though some values may be those of a salt).
